Data as given in USRE37781E1, “Substituted cyclic carbonyls and derivatives thereof useful as retroviral protease inhibitors” (DuPont Pharmaceuticals Company, priority 1991, dated 2002).
Converted amounts (≈) assume the structure as drawn. Where two headings read alike, the source gives them in different places. Blank lines part the entries; values can stand above or below the molecule they belong to.

Experiments:
[1] = target: single-chain tethered dimer of HIV protease (Human immunodeficiency virus 1, UniProt P04585); experiment: biochemical; type: biochemical; design: fused on or other part: A second copy of the same protease unit is joined to the first by a short peptide tether, giving one polypeptide
Procedure: HIV Protease Inhibition Assay—HPLC Method
Active protease was prepared as described therein by extraction with 67% acetic acid, dilution 33-fold with water, dialysis against water and then against a “refolding buffer” consisting of 20 mM MES, 1 mM dithiothreitol and 10% glycerol. Protease was stored as a stock preparation at 10 uM in refolding buffer.
Substrate: Peptide of sequence: aminobenzoyl-Ala-Thr-His-Gln-Val-Tyr-Phe(NO2)-Val-Arg-Lys-Ala containing p-nitrophenylalanine, was prepared by solid phase synthesis as previously described Cheng et al., op.cit. Stock solutions of 2 mM substrate were prepared in DMSO.
Inhibitory compounds were dissolved in sufficient DMSO to make 3 mM stock solutions. All further dilutions were prepared in “assay buffer”: 1M NaCl, 50 mM MES, pH 5.5, 1 mM EDTA, 1 mM DTT, […] glycerol.
Enzyme reaction: In a 2 ml screw-cap centrifuge tube were added 50 ul protease (final concentration 0.25 nM) and 0.1 ml inhibitory compound (final concentration […]). After 15 min preincubation at room temperature, the reaction was started with the addition of 0.05 ml substrate (final concentration 5 uM). Incubation was carried out at 30 C. for 1 hr. The reaction was stopped with 1 ml 0.1M ammonium hydroxide.
HPLC measurement of product formation: The product (aminobenzoyl-Ala-Thr-His-Gln-Val-Tyr) was separated from substrate on a Pharmacia MonoQ anion exchange column. The injection volume was 0.2 ml. The mobile phases were: A (20 mM trisHCl, pH 9.0, 0.02% sodium Azide, 10% acetonitrile), B (20 mM tris HCl, pH 9.0, 0.02% sodium azide, 0.5M ammonium formate, 10% acetonitrile). The mobile phases were pumped at 1 ml/min, with a gradient from 0 to 30% B in 5 min, 100% B for 4 min to wash the column, and a re-equilibration for 4 min. The retention time of the product was 3.6 min. Detection with a Shimadzu model RF535 fluorescence monitor was at 330 nm (excitation) and 430 (emission).

HIV-1 (RF) in MT-2 cells = experiment: microbe, parasite or virus in culture; type: cell-based
Procedure: DNA Plasmids and in vitro RNA transcripts:
Plasmid pDAB 72 containing both gag and pol sequences of BH10 (bp 113-1816) cloned into PTZ 19R was prepared according to Erickson-Viitanen et al. AIDS Research and Human Retroviruses 1989, 5, 577. The plasmid was linearized with Bam HI prior to the generation of in vitro RNA transcripts using the Riboprobe Gemini system II kit (Promega) with T7 RNA polymerase. Synthesized RNA was purified by treatment with RNase free DNAse (Promega), phenol-chloroform extraction, and ethanol precipitation. RNA transcripts were dissolved in water, and stored at −70° C. The concentration of RNA was determined from the A260.
Biotinylated capture probes were purified by HPLC after synthesis on an Applied Biosystems (Foster City, Calif.) DNA synthesizer by addition of biotin to the 5′ terminal end of the oligonucleotide, using the biotin-phosphoramidite reagent of Cocuzza, Tet. Lett. 1989, 30, 6287. The gag biotinylated capture probe (5-biotin-[…] 3′) was complementary to nucleotides 889-912 of HXB2 and the pol biotinylated capture probe (5′-biotin-[…] 3′) was complementary to nucleotides 2374-2395 of HXB2. Alkaline phosphatase conjugated oligonucleotides used as reporter probes were prepared by Syngene (San Diego, Calif.). The pol reporter probe (5′ […] 3′) was complementary to nucleotides 2403-2425 of HXB2. The gag reporter probe (5′ […] 3′) was complementary to nucleotides 950-973 of HXB2. All nucleotide positions are those of the GenBank Genetic Sequence Data Bank as accessed through the Genetics Computer Group Sequence Analysis Software Package (Devereau Nucleic Acids Research 1984, 12, 387). The reporter probes were prepared as 0.5μM stocks in 2× SSC (0.3M NaCl, 0.03M sodium citrate), 0.05M Tris pH 8.8, 1 mg/mL BSA. The biotinylated capture probes were prepared as 10 μM stocks in water.
Streptavidin coated plates:
Nunc-immunomodule microtiter plate strips were coated by addition of 200 μL of streptavidin (30 ug/mL, Scripps, La Jolla, Calif.) in freshly prepared 10 mM sodium carbonate (pH 9.6). Plates were incubated overnight at 4° C. Streptavidin solution was aspirated from the wells and a blocking buffer composed of phosphate buffered saline (PBS), 20 mg/mL bovine serum albumin (crystalline, nuclease and protease free, Calbiochem) and 100 mg/mL lactose (Sigma) was added to the plates for 3 hrs at room temperature. Blocking buffer was removed from the wells, which were allowed to dry overnight at room temperature and subsequently stored at 4° C. in zip lock bags with desiccant. For the majority of the compound evaluation experiments, streptavidin coated plates were obtained from Du Pont Biotechnology Systems (Boston, Mass.).
MT-2, CEM, and H9 cells were maintained in RPMI 1640 supplemented with 5% fetal calf serum (FCS), 2 mM L-glutamine and 50 μg/mL gentamycin, all from Gibco. Laboratory strains of HIV-1 (RF, MN and IIIB) were propagated in H9 cells in the same medium. Virus stocks were prepared approximately 1 month after acute infection of H9 cells by clarification of the tissue culture medium and storage of aliquots at −70° C. […] Each aliquot of virus stock used for infection was thawed only once. In some cases, infected H9 cells were shifted to Dulbecco's modified Eagle's medium 3-10 days before collection of virus in order to generate virus stocks in medium with low biotin content. Clinical isolates of HIV that had been passaged once in MT-2 cells were used to infect fresh MT-2 cells in RPMI medium. Three days after infection, cells were pelleted, resuspended and culture continued in Dulbecco's modified Eagle's medium as above. Virus stocks of clinical isolates were prepaid 10-15 days after infection when cytopathic effects were apparent in the culture.

[2] = read-out: HPLC K1, HIV protease inhibition, HPLC method, Table 2d

SMILES: CCCCC1C(O)C(O)C(CCCC)N(Cc2ccc(CO)cc2)C(=O)N1Cc1ccc(CO)cc1 (centres unmarked) [Example 16AT]
- Ki ([1]; Table 2e, read-out: K4 HPLC): 10 to 1000 nM

- IC90 (HIV-1 (RF) in MT-2 cells; Human immunodeficiency virus 1, MT2, 24 h, Table 1d, upper part, read-out: IC90): 10 to 100 µg/mL (≈ 21.5 to 215 µM)
SMILES: C=CCN1C(=O)N(CC=C)C(Cc2ccccc2)C2OCSCOC2C1Cc1ccccc1 (centres unmarked) [Example 7B]

SMILES: O=C1N(Cc2ccccc2)C(Cc2ccc3ccccc3c2)C(O)C(O)C(Cc2ccc3ccccc3c2)N1Cc1ccccc1 (centres unmarked) [16K]
- Ki ([1]; Table 2e, read-out: K4 HPLC): < 10 nM

SMILES: CSc1ccc(CC2C(O)C(O)C(Cc3ccc(SC)cc3)N(Cc3ccccc3)C(=O)N2Cc2ccccc2)cc1 (centres unmarked) [Example 16Q]
- Ki ([1]; Table 2e, read-out: K4 HPLC): < 10 nM

SMILES: O=C1N(CC2CC2)C(Cc2cccs2)C(O)C(O)C(Cc2cccs2)N1CC1CC1 (centres unmarked) [16O]
- Ki ([1]; Table 2e, read-out: K4 HPLC): < 10 nM

SMILES: C=CCN1C(=O)N(CC=C)C(CC(C)C)C(O)C(O)C1CC(C)C (centres unmarked) [Example 16I]
- Ki ([1]; read-out: K4 HPLC, Table 2e): < 10 nM

- IC90 (HIV-1 (RF) in MT-2 cells; Human immunodeficiency virus 1, MT2, virus inoculum standardisation, HIV-1 (RF), MT-2 cells, read-out: IC50 value (concentration of compound required to reduce the HIV RNA level by 90%)): 0.2 µg/mL (≈ 0.947 µM)
SMILES: Nc1ccn([C@H]2CC[C@@H](CO)O2)c(=O)n1 [dideoxycytidine, reference compound]

SMILES: COc1ccccc1CC1C(O)C(O)C(Cc2ccccc2OC)N(Cc2ccccc2)C(=O)N1Cc1ccccc1 (centres unmarked) [Example 16T]
- Ki ([1]; Table 2e, read-out: K4 HPLC): 10 to 1000 nM

- IC90 (HIV-1 (RF) in MT-2 cells; Human immunodeficiency virus 1, MT2, Table 1e, read-out: IC90): > 50 µg/mL
SMILES: O=C1N(Cc2ccc3ccccc3c2)C(Cc2ccccc2)C(O)C(C(Br)Cc2ccccc2)N1Cc1ccc2ccccc2c1 (centres unmarked) [Example 8R]

SMILES: CCCCN1C(=O)N(CCCC)C(CC(C)C)C(O)C(O)C1CC(C)C (centres unmarked) [Example 16AE]
- Ki ([1]; read-out: K4 HPLC, Table 2e): 10 to 1000 nM

SMILES: O=C1N(CC2CC2(c2ccccc2)c2ccccc2)C(Cc2ccccc2)C(O)C(O)C(Cc2ccccc2)N1CC1CC1(c1ccccc1)c1ccccc1 (centres unmarked) [Example 14F]
- Ki ([1]; Table 2d, class symbols, read-out: HPLC K1): 10 to 1000 nM

- IC90 (HIV-1 (RF) in MT-2 cells; Human immunodeficiency virus 1, MT2, 48 h, Table 2d, HIV RNA assay, read-out: IC90): < 10 µg/mL
SMILES: CC(=NO)c1cccc(CN2C(=O)N(Cc3cccc(C(C)=NO)c3)C(Cc3ccccc3)C(O)C(O)C2Cc2ccccc2)c1 (centres unmarked) [Example 15XS]

SMILES: CN(C)CCNC(=O)c1cccc(CN2C(=O)N(Cc3cccc(C(=O)NCCN(C)C)c3)C(Cc3ccccc3)C(O)C(O)C2Cc2ccccc2)c1 (centres unmarked) [15XW]
- IC90 (HIV-1 (RF) in MT-2 cells; Table 2d, HIV RNA assay): ++ (++=10 to 100 μg/mL)

SMILES: C=CC(=C)CN1C(=O)N(CC(=C)C=C)C(Cc2ccccc2)C(O)C(O)C1Cc1ccccc1 (centres unmarked) [Example 15FX]
- Ki [1, 2]: 10 to 1000 nM

SMILES: O=C1N(CCCCCN2CCOCC2)C(Cc2ccccc2)C(O)C(O)C(Cc2ccccc2)N1CCCCCN1CCOCC1 (centres unmarked) [15FM]
- Ki [1, 2]: > 1000 nM

SMILES: O=C1N(Cc2ccc3ccccc3n2)C(Cc2ccccc2)C(O)C(O)C(Cc2ccccc2)N1Cc1ccc2ccccc2n1 (centres unmarked) [Example 6K]
- IC90 (HIV-1 (RF) in MT-2 cells; Human immunodeficiency virus 1, MT2, HIV RNA assay, HIV-1 infected MT-2 cells, class symbols, read-out: IC90): > 100 µg/mL

SMILES: O=C1N(Cc2ccc(CO)cc2)C(Cc2ccc(F)cc2)C(O)C(O)C(Cc2ccc(F)cc2)N1Cc1ccc(CO)cc1 (centres unmarked) [20I]
- Ki ([1]; Table 2i, read-out: HPLC Ki): < 10 nM
